Reference: paper PMC11091863 (RSC Advances, 2024)

Tests used:
α-glucosidase = experiment: In vitro α-glucosidase inhibitory assay; format: biochemical; conditions: for α-Glucosidase activity: IC50 ± SD: DF = 100, five concentrations 10, 5, 1, 0.1, 0.01 μg mL^−1
α-amylase = experiment: In vitro α-amylase inhibitory assay; conditions: for IC50: read-out: The α-amylase activity: IC50 ± SD, DF = 100
[1] = biological target: T1, Human PPAR-γ (Peroxisome Proliferator-Activated Receptor Gamma) (Homo sapiens, UniProt P37231); experiment: In vitro PPAR-γ transactivation assay; format: biochemical; conditions: for PPAR-γ Folds: folds compared to Pioglitazone (= 1)
T1 sequence (P37231 1-505): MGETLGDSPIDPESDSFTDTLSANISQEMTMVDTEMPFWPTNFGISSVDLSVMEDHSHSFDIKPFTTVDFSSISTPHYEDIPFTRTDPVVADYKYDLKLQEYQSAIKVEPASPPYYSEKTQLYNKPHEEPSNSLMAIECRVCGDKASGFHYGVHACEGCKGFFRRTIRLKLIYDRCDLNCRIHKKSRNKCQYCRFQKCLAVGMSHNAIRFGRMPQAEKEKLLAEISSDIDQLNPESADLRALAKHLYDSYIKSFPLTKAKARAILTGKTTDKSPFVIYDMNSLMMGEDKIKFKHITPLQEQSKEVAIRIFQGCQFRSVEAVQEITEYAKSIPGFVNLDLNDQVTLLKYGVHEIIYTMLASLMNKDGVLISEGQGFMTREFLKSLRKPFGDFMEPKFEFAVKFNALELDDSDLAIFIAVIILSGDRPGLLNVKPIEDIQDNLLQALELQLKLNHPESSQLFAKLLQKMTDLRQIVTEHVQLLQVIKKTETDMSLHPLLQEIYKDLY

Q: For `C[C@H]1O[C@H](O[C@H]2[C@H](O)[C@@H](O)[C@@H](O[C@H]3[C@H](O)[C@@H](O)C(O)O[C@@H]3CO)O[C@@H]2CO)[C@H](O)[C@@H](O)[C@@H]1N[C@H]1C=C(CO)[C@@H](O)[C@H](O)[C@H]1O` (stereo partly drawn) [Acarbose, reference compound], which “α-Glucosidase activity: Inhibitory potential at 10 μg mL^−1” value (α-glucosidase) is on record?
A: 90.1%

Q: And the “The α-amylase activity: Inhibitory percentage at 100 μg mL^−1” value (α-amylase)?
A: 96.5%

Q: Which IC50 [1] does the source give for `N#Cc1cc2cc(S(N)(=O)=O)ccc2oc1=N` [Compound 2, 3-Cyano-2-imino-2H-chromene-6-sulfonamide] here?
A: 12.6 µM

Q: What about the “PPAR-γ Folds” value [1] of the same molecule?
A: ~1.55

Q: And the “α-Glucosidase activity: Inhibitory potential at 10 μg mL^−1” value (α-glucosidase)?
A: 90.7%

Q: What about the “α-Glucosidase activity: IC50 ± SD” value (α-glucosidase) of the same molecule?
A: 0.548 ± 0.02 µg/mL

Q: What about the “The α-amylase activity: Inhibitory percentage at 100 μg mL^−1” value (α-amylase) of the same molecule?
A: 96.1%

Q: What about the “Increase of α-amylase inhibitory potency, fold” value (α-amylase; compound 2 relative to derivative 3) of the same molecule?
A: ~8.31 fold

Q: And the IC50 (α-amylase)?
A: 1.76 ± 0.01 µM

Q: How did the “The α-amylase activity: Inhibitory percentage at 100 μg mL^−1” value (α-amylase) turn out when `N#CC(C#N)=C(N)c1cc2cc(S(N)(=O)=O)ccc2oc1=N` [Compound 3, 3-(1-Amino-2,2-dicyanovinyl)-2-imino-2H-chromene-6-sulfonamide] was run?
A: 96%

Q: What about the IC50 (α-amylase) of the same molecule?
A: 14.6 ± 0.16 µM

Q: Which “The α-amylase activity: Inhibitory percentage at 100 μg mL^−1” value (α-amylase) does the source give for `CC(=O)c1cc2cc(S(N)(=O)=O)ccc2oc1=O` [Compound 4, 3-Acetyl-2-oxo-2H-chromene-6-sulfonamide] here?
A: 94.2%

Q: And the IC50 (α-amylase)?
A: 8.55 ± 0.31 µM

Q: For `CCOC(=O)c1cc2cc(S(N)(=O)=O)ccc2oc1=O` [Compound 5, Ethyl 2-oxo-6-sulfamoyl-2H-chromene-3-carboxylate], which “The α-amylase activity: Inhibitory percentage at 100 μg mL^−1” value (α-amylase) is on record?
A: 93.4%

Q: What about the IC50 (α-amylase) of the same molecule?
A: 32.6 ± 0.33 µM

Q: What does the source list for `NS(=O)(=O)c1ccc2oc(=O)c(C(=O)Nc3ccc(F)cc3)cc2c1` [Compound 6, N-(4-fluorophenyl)-2-oxo-6-sulfamoyl-2H-chromene-3-carboxamide]?
A: The α-amylase activity: Inhibitory percentage at 100 μg mL^−1 (α-amylase): 95.4%; IC50 (α-amylase): 2.11 ± 0.03 µM

Q: With `NS(=O)(=O)c1ccc2oc(=O)c(C(=O)Nc3cccc(C(F)(F)F)c3)cc2c1` [Compound 7, 2-Oxo-6-sulfamoyl-N-(3-(trifluoromethyl)phenyl)-2H-chromene-3-carboxamide] as the molecule, how does the “The α-amylase activity: Inhibitory percentage at 100 μg mL^−1” value (α-amylase) read?
A: 96.2%

Q: What about the IC50 (α-amylase) of the same molecule?
A: 4.39 ± 0.06 µM

Q: Which results are given for `NS(=O)(=O)c1ccc2oc(=O)c(C(=O)Nc3ccc(Cl)cc3)cc2c1` [Compound 8, N-(4-chlorophenyl)-2-oxo-6-sulfamoyl-2H-chromene-3-carboxamide]?
A: The α-amylase activity: Inhibitory percentage at 100 μg mL^−1 (α-amylase): 95.4%; IC50 (α-amylase): 4.23 ± 0.06 µM

Q: What does the source list for `CCOC(=O)c1ccc(NC(=O)c2cc3cc(S(N)(=O)=O)ccc3oc2=O)cc1` [Compound 9, Ethyl 4-(2-oxo-6-sulfamoyl-2H-chromene-3-carboxamido)benzoate]?
A: IC50 [1]: 8.9 µM; PPAR-γ Folds [1]: ~1.32; α-Glucosidase activity: Inhibitory potential at 10 μg mL^−1 (α-glucosidase): 83.8%; α-Glucosidase activity: IC50 ± SD (α-glucosidase): 2.44 ± 0.09 µg/mL; The α-amylase activity: Inhibitory percentage at 100 μg mL^−1 (α-amylase): 96.6%; IC50 (α-amylase): 1.08 ± 0.02 µM
